Tests used:
[1] = system: AP2-like-ethylene-responsive transcription factor (gene 4, Solyc11g072600.1); assay: qRT-PCR expression of gene 4 in tomato leaves; format: in vivo, Tomato ecotype corbarino; set-up: key: relative expression normalized to a-tubulin housekeeping gene
Method: (§1) Tomato ecotype “corbarino” reported to be susceptible to TSWV infection was used in the experiment. Plants were grown in pots in a climatic chamber with a photoperiod of 16/8 hour at 25° C.
(§2) The viral strain (TSWV PV PV-0393) was utilized in the experiment. The virus was mechanically inoculated and propagated on tomato “corbarino”. The inoculum was prepared in an ice-cooled mortar grounding 1 gr of infected tomato tissue in 10 ml of Na-phosphate buffer 0.01M. The fresh prepared inoculum was stored in ice before use. Tomato plants at BBCH16 were dusted with Carborundum 600 mesh and selected leaves were rubbed with some droplets of inoculum. After 5 min. plants were sprayed with sterile water to remove the excess of inoculum and preserve the cell turgor.
(§3) Four treatments were compared: i) Mock inoculated; ii) TSWV; iii) 0.25% Laminarin; iv) 0.25% Laminarin+TSWV. In the last treatment the virus was inoculated 24 hrs after the laminarin application.
(§4) Total RNA was extracted from systemic infected tomato leaves by using the Quick-RNA Plant Kit (Zymo Research) following the manufacturer instructions. The extractions were carried out using three plants after 12 h, 24 h, 48 h, 72 h, 7 days after inoculation. Leaves were instantly frozen in liquid nitrogen after cutting to avoid any deterioration of the sample as well as any defense reaction. The RNA concentration was quantified by measuring the absorbance at 260 nm using a Nanodrop 2000 (Thermofisher). The purity of all of the RNA samples was assessed at an absorbance ratio of OD260/280 and OD260/230, while its structural integrity was checked by agarose gel electrophoresis. Only high-quality RNA with OD 260/280 and OD 260/230>2 was used for subsequent steps. Single-stranded cDNA was synthesized from 1 μg of total RNA using an iScript™ Select cDNA Synthesis Kit and random hexamers as primers (Bio-Rad, Milan, Italy), according to the manufacturer's instructions. Three biological replicates were created from the 3 leaves collected to test 15 genes. Alpha tubulin was used as reference gene.
(§5) qPCR reactions were performed with BioRad (Applied Biosystems, Foster City, CA, USA) using SYBR R Green. Each reaction was performed in 20 μl containing 10 μl of 2× Power SYBR Green PCR Master Mix (Life Technologies), 0.2-0.3 μM primers and cDNA samples diluted 1:20. Each qPCR reaction was performed in triplicate. Reactions were run using the cycling parameter described previously (Reid et al., 2006) and the qPCR data were analyzed by the Ct method (Pfaffl, 2001). In order to analyze the qPCR data, a-tubulin gene was used as housekeeping to determine the relative expression level of the other genes analyzed in this work. For the determination of qPCR efficiency of each primer pairs, a standard curve was performed using the following cDNA dilutions: 1:4, 1:16, 1:64; 1:256 and 1:1024. Every measurement was made in triplicate. The corresponding qPCR efficiencies (E) were calculated for every primer pair with the software 7300 System SDS software (Applied Biosystems, Foster City, CA, USA) according to the equation E=(10−1/slope−1)×100 (Rutledge and Stewart, 2008).
(§6) The significance of the differences between the gene expressions levels were compared by one-way ANOVA (p=0.01) and the means were separated by Tukey post-hoc test using SPSS ver.26 ([…]).

[2] = system: Pti6 (gene 15, U89257.1); assay: qRT-PCR expression of gene 15 in tomato leaves; format: in vivo, Tomato ecotype corbarino; set-up: key: relative expression normalized to a-tubulin housekeeping gene
Method: as §1, §2, §3, §4, §5, §6

[3] = Gene_15, 12 hr, treatment Laminarin
[4] = Gene_15, 12 hr, treatment Laminarin + virus
[5] = Gene_15, 24 hr, treatment Laminarin
[6] = Gene_15, 24 hr, treatment Laminarin + virus
[7] = Gene_15, 48 hr, treatment Laminarin
[8] = Gene_15, 48 hr, treatment Laminarin + virus
[9] = Gene_15, 72 hr, treatment Laminarin
[10] = Gene_15, 72 hr, treatment Laminarin + virus

laminarin
RQ1 ([1]; 12 hr, Laminarin + virus): 12.523 | RQ2 ([1]; 12 hr, Laminarin + virus): 0.9104 | RQ3 ([1]; 12 hr, Laminarin + virus): 10.299 | RQ mean ([1]; 12 hr, Laminarin + virus): 10.642 | RQ1 ([1]; 12 hr, Laminarin alone): 0.9931 | RQ2 ([1]; 12 hr, Laminarin alone): 0.9090 | RQ3 ([1]; 12 hr, Laminarin alone): 0.7654 | RQ mean ([1]; 12 hr, Laminarin alone): 0.8892 | RQ1 ([1]; 24 hr, Laminarin + virus): 1.250 | RQ2 ([1]; 24 hr, Laminarin + virus): 1.754 | RQ3 ([1]; 24 hr, Laminarin + virus): 1.545 | RQ mean ([1]; 24 hr, Laminarin + virus): 1.516 | RQ1 ([1]; 24 hr, Laminarin alone): 1.744 | RQ2 ([1]; 24 hr, Laminarin alone): 1.728 | RQ3 ([1]; 24 hr, Laminarin alone): 1.516 | RQ mean ([1]; 24 hr, Laminarin alone): 1.662 | RQ1 ([1]; 48 hr, Laminarin + virus): 13.802 | RQ2 ([1]; 48 hr, Laminarin + virus): 15.313 | RQ3 ([1]; 48 hr, Laminarin + virus): 21.904 | RQ mean ([1]; 48 hr, Laminarin + virus): 17.006 | RQ1 ([1]; 48 hr, Laminarin alone): 15.231 | RQ2 ([1]; 48 hr, Laminarin alone): 15.784 | RQ3 ([1]; 48 hr, Laminarin alone): 37.709 | RQ mean ([1]; 48 hr, Laminarin alone): 22.908 | RQ1 ([1]; 72 hr, Laminarin + virus): 35.424 | RQ2 ([1]; 72 hr, Laminarin + virus): 26.180 | RQ3 ([1]; 72 hr, Laminarin + virus): 29.297 | RQ mean ([1]; 72 hr, Laminarin + virus): 30.301 | RQ1 ([1]; 72 hr, Laminarin alone): 25.807 | RQ2 ([1]; 72 hr, Laminarin alone): 30.148 | RQ3 ([1]; 72 hr, Laminarin alone): 26.311 | RQ mean ([1]; 72 hr, Laminarin alone): 27.422 | RQ1 [2, 3]: 10.060 | RQ2 [2, 3]: 10.254 | RQ3 [2, 3]: 12.879 | RQ mean [2, 3]: 11.065 | RQ1 [2, 4]: 12.002 | RQ2 [2, 4]: 16.131 | RQ3 [2, 4]: 13.764 | RQ mean [2, 4]: 13.966 | RQ1 [2, 5]: 13.129 | RQ2 [2, 5]: 21.363 | RQ3 [2, 5]: 13.388 | RQ mean [2, 5]: 15.960 | RQ1 [2, 6]: 15.392 | RQ2 [2, 6]: 14.812 | RQ3 [2, 6]: 12.195 | RQ mean [2, 6]: 14.133 | RQ1 [2, 7]: 32.421 | RQ2 [2, 7]: 0.8602 | RQ3 [2, 7]: 19.066 | RQ mean [2, 7]: 20.030 | RQ1 [2, 8]: 16.304 | RQ2 [2, 8]: 17.934 | RQ3 [2, 8]: 18.959 | RQ mean [2, 8]: 17.732 | RQ1 [2, 9]: 49.281 | RQ2 [2, 9]: 36.255 | RQ3 [2, 9]: 43.025 | RQ mean [2, 9]: 42.853 | RQ1 [2, 10]: 22.660 | RQ2 [2, 10]: 30.703 | RQ3 [2, 10]: 44.821 | RQ mean [2, 10]: 32.728

— US20240099214A1, “PLANT DEFENCE GENE EXPRESSION” (UPL Corporation Limited, priority 2021, published 2024)
